1 compound from article PMC6934184, “Selective DNA-PKcs inhibition extends the therapeutic index of localized radiotherapy and chemotherapy” (The Journal of Clinical Investigation, 2019) can be followed below.

The assay concerns the target T1, TNIK (Homo sapiens, UniProt Q9UKE5).
T1 construct: purchased Thermo Fisher Scientific (Life Technologies) SelectScreen
Put plainly: SelectScreen LanthaScreen. The format is binding. To be noted: read-out: % displacement. In a few lines: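 NU5455 was profiled across the SelectScreen Broad panel of kinase activity and binding assays. Z'LYTE reactions such as CSF1R ran at apparent Km ATP, while the Adapta CAMK1 assay used ATP listed as 10. Values are given as percent.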

T1 sequence (Q9UKE5 whole entry): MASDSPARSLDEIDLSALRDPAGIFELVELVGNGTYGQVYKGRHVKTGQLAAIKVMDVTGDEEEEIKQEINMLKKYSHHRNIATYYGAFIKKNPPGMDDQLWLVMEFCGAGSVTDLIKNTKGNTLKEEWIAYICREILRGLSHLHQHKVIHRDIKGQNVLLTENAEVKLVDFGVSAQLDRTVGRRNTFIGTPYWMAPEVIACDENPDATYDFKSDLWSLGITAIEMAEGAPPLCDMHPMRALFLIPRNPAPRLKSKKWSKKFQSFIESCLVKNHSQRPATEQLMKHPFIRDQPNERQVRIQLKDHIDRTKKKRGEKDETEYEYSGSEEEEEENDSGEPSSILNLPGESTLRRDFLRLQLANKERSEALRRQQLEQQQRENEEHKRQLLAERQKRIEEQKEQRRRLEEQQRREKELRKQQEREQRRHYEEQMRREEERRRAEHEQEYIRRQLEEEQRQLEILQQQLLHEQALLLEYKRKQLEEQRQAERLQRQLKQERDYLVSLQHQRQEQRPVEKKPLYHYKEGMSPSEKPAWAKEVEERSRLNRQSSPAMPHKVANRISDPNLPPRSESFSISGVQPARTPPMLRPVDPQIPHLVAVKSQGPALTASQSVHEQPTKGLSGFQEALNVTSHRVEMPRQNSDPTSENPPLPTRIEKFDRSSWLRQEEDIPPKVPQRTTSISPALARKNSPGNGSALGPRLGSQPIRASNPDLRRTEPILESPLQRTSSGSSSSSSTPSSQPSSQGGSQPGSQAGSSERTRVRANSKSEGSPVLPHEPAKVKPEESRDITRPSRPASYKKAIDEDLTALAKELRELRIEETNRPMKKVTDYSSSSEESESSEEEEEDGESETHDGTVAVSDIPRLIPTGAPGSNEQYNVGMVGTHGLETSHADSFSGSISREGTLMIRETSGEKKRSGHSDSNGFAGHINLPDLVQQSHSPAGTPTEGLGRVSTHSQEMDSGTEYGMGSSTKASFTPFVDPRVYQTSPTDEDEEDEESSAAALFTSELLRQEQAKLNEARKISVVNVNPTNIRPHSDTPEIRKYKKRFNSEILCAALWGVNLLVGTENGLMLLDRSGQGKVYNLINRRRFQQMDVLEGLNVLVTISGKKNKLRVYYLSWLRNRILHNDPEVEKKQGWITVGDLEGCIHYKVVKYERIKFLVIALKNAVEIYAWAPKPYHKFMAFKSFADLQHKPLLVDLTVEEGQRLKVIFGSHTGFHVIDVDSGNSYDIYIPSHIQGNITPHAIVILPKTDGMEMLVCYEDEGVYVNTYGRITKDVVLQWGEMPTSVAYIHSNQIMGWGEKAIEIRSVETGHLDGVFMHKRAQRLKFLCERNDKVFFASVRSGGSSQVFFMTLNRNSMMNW

With `CN(C(=O)CN1CCOCC1)c1ccc2sc3c(-c4cccc5c(=O)cc(N6CC7CCC(C6)O7)oc45)cccc3c2c1` [NU5455], the inhibition at 1 µM came out at 7.3%.
